Counter-ions that a name gives are not always drawn.
biological target: T1, recombinant human 5-HT6 receptor (Homo sapiens, UniProt P50406); test: Radioligand binding studies: competition for [3H]LSD binding in membranes of HEK293 cells; settings: [3H]LSD (5 nM), HEK293 cell membranes, 60 min at 37° C., pH 7.4
T1 construct: expressed in transfected cells; cell membranes used
Protocol: The pharmacology of the compounds of this invention was determined by art recognized procedures.
The binding activity of compounds of this invention in vitro was determined as follows.
Duplicate determinations of ligand affinity are made by competing for binding of [3H]LSD in cell membranes derived from HEK293 cells stably expressing recombinant human 5-HT6 receptor.
All determinations are made in assay buffer containing 50 mM Tris-HCl, 10 mM MgSO4, 0.5 mM EDTA, 1 mM ascorbic acid, pH 7.4 at 37° C., in a 250 microliter reaction volume. Assay tubes containing [3H] LSD (5 nM), competing ligand, and membrane are incubated in a shaking water bath for 60 min. at 37° C., filtered onto Packard GF-B plates (pre-soaked with 0.3% PEI) using a Packard 96 well cell harvester and washed 3 times in ice cold 50 mM Tris-HCl. Bound [3H] LSD is determined as radioactive counts per minute using Packard TopCount.
Displacement of [3H]LSD from the binding sites was quantified by fitting concentration-binding data to a 4-parameter logistic equation: [formula]
where Hill is the Hill slope, [ligand] is the concentration of competing radioligand and IC50 is the concentration of radioligand producing half-maximal specific binding of radioligand. The specific binding window is the difference between the Bmax and the basal parameters.

T1 sequence (P50406 whole entry): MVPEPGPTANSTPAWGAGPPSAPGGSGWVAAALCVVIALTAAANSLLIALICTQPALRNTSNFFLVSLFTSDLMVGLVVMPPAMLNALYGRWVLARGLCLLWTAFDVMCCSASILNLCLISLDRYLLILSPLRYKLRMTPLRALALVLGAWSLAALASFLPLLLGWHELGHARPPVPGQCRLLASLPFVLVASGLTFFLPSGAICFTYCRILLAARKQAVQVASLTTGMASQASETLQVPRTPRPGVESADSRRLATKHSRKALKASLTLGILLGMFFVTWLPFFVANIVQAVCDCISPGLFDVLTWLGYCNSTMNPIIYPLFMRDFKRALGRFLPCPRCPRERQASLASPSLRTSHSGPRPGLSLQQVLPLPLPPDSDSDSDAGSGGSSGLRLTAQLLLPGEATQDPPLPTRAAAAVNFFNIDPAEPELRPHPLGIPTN

Row | Ki | SMILES | pKi
1 | 1550 pM | CCCS(=O)(=O)c1cccc(S(=O)(=O)n2ccc3c(N4CCNCC4)cccc32)c1 [4-piperazin-1-yl-1-[3-(propane-1-sulfonyl)-benzenesulfonyl]-1H-indole] | 
2 | 200 pM | O=S(=O)(c1cccc(C(F)(F)F)c1)n1ccc2c(N3CCNCC3)cccc21 [4-piperazin-1-yl-1-(3-trifluoromethyl-benzenesulfonyl)-1H-indole] | 
3 | 42700 pM | CS(=O)(=O)c1ccc(S(=O)(=O)n2ccc3c(N4CCNCC4)cccc32)cc1 [1-(4-methanesulfonyl-benzenesulfonyl)-4-piperazin-1-yl-1H-indole] | 
4 | 13800 pM | CS(=O)(=O)c1ccc(F)c(S(=O)(=O)n2ccc3c(N4CCNCC4)cccc32)c1 [1-(2-fluoro-5-methanesulfonyl-benzenesulfonyl)-4-piperazin-1-yl-1H-indole] | 
5 | 3550 pM | CC(C)(C)c1ccc(S(=O)(=O)n2ccc3c(N4CCNCC4)cccc32)cc1 [1-(4-ter-butyl-benzenesulfonyl)-4-piperazin-1-yl-1H-indole] | 
6 | 16600 pM | CS(=O)(=O)c1ccccc1S(=O)(=O)n1ccc2c(N3CCNCC3)cccc21 [1-(2-methanesulfonyl-benzenesulfonyl)-4-piperazin-1-yl-1H-indole] | 
7 |  | CN(C)S(=O)(=O)c1cccc(S(=O)(=O)n2ccc3c(N4CCNCC4)cccc32)c1 [NN-dimethyl-3-(4-piperazin-1-yl-indole-1-sulfonyl)-benzenesulfonamide] | 8.69
8 | 1910 pM | CC(C)CS(=O)(=O)c1cccc(S(=O)(=O)n2ccc3c(N4CCNCC4)cccc32)c1 [1-[3-(2-methyl-propane-1-sulfonyl)-benzenesulfonyl]-4-piperazin-1-yl-1H-indole] | 
9 | 933 pM | COc1ccc(OC)c(S(=O)(=O)n2ccc3c(N4CCNCC4)cccc32)c1 [1-(2,5-dimethoxy-benzenesulfonyl)-4-piperazin-1-yl-1H-indole] | 
10 | 832 pM | CN1CCN(c2cccc3c2ccn3S(=O)(=O)c2ccc(F)cc2)CC1 [1-(4-fluoro-benzenesulfonyl)-4-(4-methyl-piperazin-1-yl)-1H-indole] | 
11 | 158 pM | O=S(=O)(c1cccc2ccccc12)n1ccc2c(N3CCNCC3)cccc21 [1-(Naphthalene-1-sulfonyl)-4-piperazin-1-yl-1H-indole] | 
12 | 1550 pM | CCS(=O)(=O)c1cccc(S(=O)(=O)n2ccc3c(N4CCNCC4)cccc32)c1 [1-(3-ethanesulfonyl-benzenesulfonyl)-4-piperazin-1-yl-1H-indole] | 
13 | 2690 pM | CS(=O)(=O)c1cccc(S(=O)(=O)n2ccc3c(N4CCNCC4)cccc32)c1 [1-(3-methanesulfonyl-benzenesulfonyl)-4-piperazin-1-yl-1Hindole] | 
14 | 1260 pM | O=S(=O)(NC1CC1)c1cccc(S(=O)(=O)n2ccc3c(N4CCNCC4)cccc32)c1 [N-cyclopropyl-3-(4-piperazin-1-yl-indole-1-sulfonyl)-benzenesulfonamide] | 
15 | 7590 pM | CS(=O)(=O)c1cc(Br)cc(S(=O)(=O)n2ccc3c(N4CCNCC4)cccc32)c1 [1-(3-bromo-5-methanesulfonyl-benzenesulfonyl)-4-piperazin-1-yl-1H-indole] | 

Row | SMILES | Ki | pKi
16 | COc1cccc(S(=O)(=O)n2ccc3c(N4CCNCC4)cccc32)c1 [1-(3-methoxy-benzenesulfonyl)-4-piperazin-1-yl-1H-indole] | 372 pM | 
17 | O=S(=O)(c1cccs1)n1ccc2c(N3CCNCC3)cccc21 [4-piperazin-1-yl-1-(thiophene-2-sulfonyl)-1H-indole] | 447 pM | 
18 | N#Cc1cccc(S(=O)(=O)n2ccc3c(N4CCNCC4)cccc32)c1 [3-(4-piperazin-1-yl-indole-1-sulfonyl)-benzonitrile] | 1120 pM | 
19 | O=S(=O)(c1cc(Cl)ccc1Cl)n1ccc2c(N3CCNCC3)cccc21 [1-(2,5-dichloro-benzenesulfonyl)-4-piperazin-1-yl-1H-indole] | 151 pM | 
20 | O=S(=O)(c1cccc(F)c1)n1ccc2c(N3CCNCC3)cccc21 [1-(3-fluoro-benzenesulfonyl)-4-piperazin-1-yl-1H-indole] | 155 pM | 
21 | O=S(=O)(c1ccccc1F)n1ccc2c(N3CCNCC3)cccc21 [1-(2-fluoro-benzenesulfonyl)-4-piperazin-1-yl-1H-indole] | 52.5 pM | 
22 | O=S(=O)(c1cnc(Cl)c(Br)c1)n1ccc2c(N3CCNCC3)cccc21 [1-(5-bromo-6-chloro-pyridine-3-sulfonyl)-4-piperazin-1-yl-1H-indole] | 5620 pM | 
23 | O=S(=O)(c1cccc(Cl)c1)n1ccc2c(N3CCNCC3)cccc21 [1-(3-chloro-benzenesulfonyl)-4-piperazin-1-yl-1H-indole] | 110 pM | 
24 | O=S(=O)(c1ccc(Cl)cc1)n1ccc2c(N3CCNCC3)cccc21 [1-(4-chloro-benzenesulfonyl)-4-piperazin-1-yl-1H-indole] | 537 pM | 
25 | COc1ccc(S(=O)(=O)n2ccc3c(N4CCNCC4)cccc32)cc1 [1-(4-Methoxy-benzenesulfonyl)-4-piperazin-1-yl-1H-indole] | 447 pM | 
26 | O=S(=O)(c1cc(Cl)cc(Cl)c1)n1ccc2c(N3CCNCC3)cccc21 [1-(3,5-Dichloro-benzenesulfonyl)-4-piperazin-1-yl-1H-indole] | 372 pM | 
27 | O=S(=O)(c1ccccc1)n1cc(Br)c2c(N3CCNCC3)cccc21 [1-benzenesulfonyl-3-bromo-4-piperazin-1-yl-1H-indole] | 123 pM | 

system: not given; test: not given; settings: not given

Row | melting point | SMILES
28 | 151 to 152 °C | CN1CCN(c2cccc3c2ccn3S(=O)(=O)c2ccc(F)cc2)CC1 (as salt: hydrochloride) [1-(4-fluoro-benzenesulfonyl)-4-(4-methyl-piperazin-1-yl)-1H-indole]
29 | 231 to 232 °C (dec.) | CC(C)(C)c1ccc(S(=O)(=O)n2ccc3c(N4CCNCC4)cccc32)cc1 (as salt: trifluoroacetate) [1-(4-ter-butyl-benzenesulfonyl)-4-piperazin-1-yl-1H-indole]
30 | 171 °C | CS(=O)(=O)c1ccccc1S(=O)(=O)n1ccc2c(N3CCNCC3)cccc21 (as salt: trifluoroacetate) [1-(2-methanesulfonyl-benzenesulfonyl)-4-piperazin-1-yl-1H-indole]
31 | 158 to 159 °C | O=S(=O)(c1cccc(Br)c1)n1ccc2c(N3CCNCC3)cccc21 (as salt: hydrochloride)
32 | 230 to 231 °C | Cn1cnc(S(=O)(=O)n2ccc3c(N4CCNCC4)cccc32)c1 (as salt: trifluoroacetate)
33 | 166 to 167 °C | CCS(=O)(=O)c1cccc(S(=O)(=O)n2ccc3c(N4CCNCC4)cccc32)c1 (as salt: hydrochloride) [1-(3-ethanesulfonyl-benzenesulfonyl)-4-piperazin-1-yl-1H-indole]

Row | SMILES | melting point
34 | O=S(=O)(c1cccs1)n1ccc2c(N3CCNCC3)cccc21 (as salt: trifluoroacetate) [4-piperazin-1-yl-1-(thiophene-2-sulfonyl)-1H-indole] | 208 to 209 °C
35 | O=S(=O)(c1ccc(Cl)cc1)n1ccc2c(N3CCNCC3)cccc21 (as salt: trifluoroacetate) [1-(4-chloro-benzenesulfonyl)-4-piperazin-1-yl-1H-indole] | 193 to 194 °C
36 | O=S(=O)(c1cc(Cl)ccc1Cl)n1ccc2c(N3CCNCC3)cccc21 (as salt: trifluoroacetate) [1-(2,5-dichloro-benzenesulfonyl)-4-piperazin-1-yl-1H-indole] | 237 to 238 °C (dec.)
